Like-named read-outs stand apart in the source and are kept apart here.
Test: Single dose PK in healthy subjects (Cohorts 1, 2, S1 and S2), plasma
Assay type: in vivo, human
Conditions: human, plasma, intravenous
Description: This study investigates (i) the safety and tolerability of Compound A (methyl (2R,3S)-3-((methylsulfonyl)amino)-2-(((cis-4-phenylcyclohexyl)oxy)methyl)piperidine-1-carboxylate) when a single dose given as a 9 hour continuous IV infusion is administered to healthy adults, healthy elderly subjects and patients with narcolepsy type 1 (NT1); (ii) the pharmacokinetics of Compound A when a single dose given as a 9 hour continuous IV infusion is administered to healthy adults, healthy elderly subjects and patients with narcolepsy type 1; and (iii) the pharmacodynamics (PD) effects of Compound A, primarily by evaluation of the sleep latency on MWT when a single dose given as a 9 hour continuous IV infusion is administered to patients with narcolepsy type 1.
Pharmacokinetics: Concentrations of Compound A in plasma, and CSF, and pharmacokinetics parameters.
On average, the time to reach the plateau appeared to be approximately 3 to 4 hours after the start of infusion. […] After switching off the IV infusion, Compound A plasma concentrations declined rapidly and in a biphasic manner with a mean terminal disposition phase t1/2z ranging approximately from 3.4 to 5.1 hours across all doses. […] Table 5 provides a summary of plasma concentrations of Compound A after a single IV infusion in healthy subjects. Table 6 provides a summary of pharmacokinetic parameters of Compound A after a single IV infusion in healthy subjects.

[1] = 28 mg, read-out: Plasma concentration, Minimum
[2] = 28 mg, read-out: Plasma concentration, Q1
[3] = 28 mg, read-out: Plasma concentration, Q3
[4] = 28 mg, read-out: Plasma concentration, Maximum
[5] = 28 mg, read-out: Plasma concentration, Mean
[6] = 28 mg, read-out: Plasma concentration, Median
[7] = 56 mg, read-out: Plasma concentration, Maximum
[8] = 56 mg, read-out: Plasma concentration, Mean
[9] = 56 mg, read-out: Plasma concentration, Median
[10] = 56 mg, read-out: Plasma concentration, Minimum
[11] = 56 mg, read-out: Plasma concentration, Q1
[12] = 56 mg, read-out: Plasma concentration, Q3
[13] = 112 mg, read-out: Plasma concentration, Maximum
[14] = 112 mg, read-out: Plasma concentration, Mean
[15] = 112 mg, read-out: Plasma concentration, Median
[16] = 112 mg, read-out: Plasma concentration, Minimum
[17] = 112 mg, read-out: Plasma concentration, Q1
[18] = 112 mg, read-out: Plasma concentration, Q3

COC(=O)N1CCC[C@H](NS(C)(=O)=O)[C@@H]1CO[C@H]1CC[C@@H](c2ccccc2)CC1 [Compound A, methyl (2R,3S)-3-((methylsulfonyl)amino)-2-(((cis-4-phenylcyclohexyl)oxy)methyl)piperidine-1-carboxylate]
concentration at 2 hr [1]: 33.7 ng/mL | concentration at 2 hr [2]: 45.5 ng/mL | concentration at 2 h [3]: 57.8 ng/mL | concentration at 3 h [4]: 65.2 ng/mL | concentration at 3 hr [5]: 55 ng/mL | concentration at 3 h [6]: 59.3 ng/mL | concentration at 3 hr [1]: 35.6 ng/mL | concentration at 3 hr [2]: 51.3 ng/mL | concentration at 3 h [3]: 63.7 ng/mL | concentration at 4 hr [4]: 63.1 ng/mL | concentration at 4 h [5]: 55 ng/mL | concentration at 4 hr [6]: 54.5 ng/mL | concentration at 4 hr [1]: 44.4 ng/mL | concentration at 4 hr [2]: 54.2 ng/mL | concentration at 4 hr [3]: 58.8 ng/mL | concentration at 6 hr [4]: 51.7 ng/mL | concentration at 6 hr [5]: 46.8 ng/mL | concentration at 6 hr [6]: 48 ng/mL | concentration at 6 hr [1]: 40.2 ng/mL | concentration at 6 hr [2]: 45.4 ng/mL | concentration at 6 hr [3]: 48.8 ng/mL | concentration at 8 hr [4]: 58.8 ng/mL | concentration at 8 hr [5]: 48.7 ng/mL | concentration at 8 hr [6]: 51.7 ng/mL | concentration at 8 hr [1]: 37.1 ng/mL | concentration at 8 hr [2]: 43.3 ng/mL | concentration at 8 hr [3]: 52.5 ng/mL | concentration at 9 hr [4]: 58.3 ng/mL | concentration at 9 hr [5]: 52.5 ng/mL | concentration at 9 hr [6]: 55.3 ng/mL | concentration at 9 hr [1]: 40.6 ng/mL | concentration at 9 hr [2]: 51 ng/mL | concentration at 9 hr [3]: 57.4 ng/mL | concentration at 0.5 h [7]: 80.3 ng/mL | concentration at 0.5 h [8]: 71.2 ng/mL | concentration at 0.5 h [9]: 70.7 ng/mL | concentration at 0.5 h [10]: 64.4 ng/mL | concentration at 0.5 h [11]: 65 ng/mL | concentration at 0.5 h [12]: 75.9 ng/mL | concentration at 1 h [7]: 91.5 ng/mL | concentration at 1 h [8]: 81.2 ng/mL | concentration at 1 h [9]: 79 ng/mL | concentration at 1 h [10]: 74.8 ng/mL | concentration at 1 h [11]: 76.2 ng/mL | concentration at 1 h [12]: 86.3 ng/mL | concentration at 1.5 h [7]: 116 ng/mL | concentration at 1.5 h [8]: 92.8 ng/mL | concentration at 1.5 h [9]: 90.2 ng/mL | concentration at 1.5 h [10]: 75.5 ng/mL | concentration at 1.5 h [11]: 88.8 ng/mL | concentration at 1.5 h [12]: 96.1 ng/mL | concentration at 2 h [7]: 114 ng/mL | concentration at 2 h [8]: 99.5 ng/mL | concentration at 2 h [9]: 99 ng/mL | concentration at 2 h [10]: 86.5 ng/mL | concentration at 2 h [11]: 88.8 ng/mL | concentration at 2 h [12]: 110 ng/mL | concentration at 3 h [7]: 133 ng/mL | concentration at 3 h [8]: 114 ng/mL | concentration at 3 h [9]: 112 ng/mL | concentration at 3 h [10]: 98.3 ng/mL | concentration at 3 h [11]: 98.6 ng/mL | concentration at 3 h [12]: 131 ng/mL | concentration at 4 h [7]: 144 ng/mL | concentration at 4 hr [8]: 118 ng/mL | concentration at 4 h [9]: 113 ng/mL | concentration at 4 hr [10]: 107 ng/mL | concentration at 4 hr [11]: 109 ng/mL | concentration at 4 h [12]: 120 ng/mL | concentration at 6 h [7]: 119 ng/mL | concentration at 6 hr [8]: 91.8 ng/mL | concentration at 6 h [9]: 90.8 ng/mL | concentration at 6 hr [10]: 73.5 ng/mL | concentration at 6 h [11]: 73.8 ng/mL | concentration at 6 h [12]: 103 ng/mL | concentration at 8 h [7]: 133 ng/mL | concentration at 8 hr [8]: 102 ng/mL | concentration at 8 h [9]: 99.7 ng/mL | concentration at 8 hr [10]: 84.9 ng/mL | concentration at 8 h [11]: 87.2 ng/mL | concentration at 8 h [12]: 108 ng/mL | concentration at 9 h [7]: 138 ng/mL | concentration at 9 hr [8]: 115 ng/mL | concentration at 9 h [9]: 112 ng/mL | concentration at 9 hr [10]: 102 ng/mL | concentration at 9 h [11]: 104 ng/mL | concentration at 9 h [12]: 122 ng/mL | concentration at 0.5 h [13]: 174 ng/mL | concentration at 0.5 h [14]: 132 ng/mL | concentration at 0.5 h [15]: 122 ng/mL | concentration at 0.5 h [16]: 108 ng/mL | concentration at 0.5 h [17]: 119 ng/mL | concentration at 0.5 h [18]: 149 ng/mL | concentration at 1 h [13]: 172 ng/mL | concentration at 1 h [14]: 154 ng/mL | concentration at 1 h [15]: 162 ng/mL | concentration at 1 h [16]: 126 ng/mL | concentration at 1 h [17]: 131 ng/mL | concentration at 1 h [18]: 169 ng/mL | concentration at 1.5 h [13]: 255 ng/mL | concentration at 1.5 h [14]: 194 ng/mL

Reference: patent publication US20220339143A1, “TAK-925 FOR USE IN TREATING NARCOLEPSY” (Takeda Pharmaceutical Company Limited, priority 2019, published 2022)
